Reference: patent US7419657B2, “Treatment of atherosclerotic disorders” (priority 2001, dated 2008)
“And” between values parts separate entries of the source, which are not always exact repeats. Equal entries are not always repeated. Structures can show the parent of a compound that is named as a salt. Where two headings read alike, the source gives them in different places. Marks after values point to notes of the source that are not given here.

Columns and labels:
lesion IgG = assay: LDL peroxidation by lesion IgG with tested antioxidants; assay type: biochemical, human
anti-Chlamydia abzymes [1] = assay type: biochemical, human; set-up: key to In-vitro Inhibition: + = inhibition; − = no inhibition
human plasma = assay: In vitro kaolin clotting of plasma with atheroma IgG abzymes; conditions: pH 6.2
Chlamydia = assay type: biochemical, Chlamydia pneumoniae or Chlamydia Psittaci
anti-Chlamydia abzymes [2] = assay: Abzyme activity in angina patients reporting aspirin intake (Example 10); assay type: in vivo, human; conditions: for abzyme activity, + aspirin: individuals
anti-Chlamydia abzymes [3] = assay: Serum abzyme activity in patients taking aspirin (Example 6); assay type: in vivo, human
anti-Chlamydia abzymes [4] = assay: Anti-abzyme therapy trial in ischaemic heart disease: serum abzyme activity; assay type: in vivo, human
anti-Chlamydia IgG [5] = assay: Anti-abzyme therapy trial: anti-Chlamydia IgG; assay type: in vivo, human
anti-Chlamydia IgG [6] = conditions: best of previously undertaken trials with azithromycin; cited from earlier work
anti-Chlamydia abzymes [7] = assay: Serum abzyme activity in stable angina patients treated with azithromycin with or without aspirin (Example 8); assay type: in vivo, human; conditions: azithromycin 500 mg once per day
[8] = Anti-abzyme therapy trial: modified Rose-Blackburn Questionnaire; assay type: in vivo, human; set-up: Score by modified Rose-Blackburn Questionnaire, 60 days after start of the treatment / Rose Blackthorn Score Day 60: scale not given here
Source text: The progression of the clinical condition of the patients was monitored by the use of the modified Bruce Protocol for treadmill exercise/stress ECG testing and on the Rose-Blackburn Questionnaire (Cardiovascular Survey Methods. WHO, Geneva, 1968).

[9] = 10 μM of each Me2+-binding agent
[10] = 10 μM of each Me2+-binding agent, control 24.3
[11] = patient F, Silent Myocardial Ischaemia
[12] = group mean, before treatment 45.9
[13] = individual stable angina patients
[14] = individual IHD patients negative for anti-Chlamydia IgG
[15] = Therapy Group A individual IHD patients, azithromycin 500 mg daily
[16] = Therapy Group A mean, before treatment 47.5

Compound: O=C1O[C@H]([C@@H](O)CO)C(O)=C1O [ascorbic acid]
- Level of MDA production by 0.82 μg of lesion IgG (lesion IgG): 0 µM

Compound: [N-]=[N+]=[N-].[Na+] [NaN1, sodium azide]
- In-vitro Inhibition (anti-Chlamydia abzymes [1]): +
- Lipid oxidising activity of anti-Chlamydia abzymes (anti-Chlamydia abzymes [1]): 0 μM MDA/ml
- Result (inhibition of anti-Chlamydia abzymes) (anti-Chlamydia abzymes [1]): Positive
- abzyme effect on the plasma clotting after pre-incubation of the abzymes with inhibitor (human plasma): reduction

Compound: Nadroparin Calcium
- Anti-Abzyme activity (anti-Chlamydia abzymes [1]; drug 95 UI, control 21.7): 20.5 μM MDA/ml
- Anti-Abzyme activity (anti-Chlamydia abzymes [1]; drug 465 UI, control 21.7): 12.8 μM MDA/ml

Compound: C[S+](C)[O-] [DMSO]
- development of lipid oxidation reaction (Chlamydia): completely abrogated
- Level of MDA production by 0.82 μg of lesion IgG (lesion IgG; LDL 480 μg of protein, +1% antioxidant, control 0.49 ± 0.023): 0 µM

Compound: Cc1c(C)c2c(c(C)c1O)CC[C@@](C)(CCC[C@H](C)CCC[C@H](C)CCCC(C)C)O2 [α-Tocopherol]
- Lipid oxidising activity of anti-Chlamydia abzymes (anti-Chlamydia abzymes [1]; in DMSO, 1 μM, control 61): 15 μM MDA/ml
- Lipid oxidising activity of anti-Chlamydia abzymes (anti-Chlamydia abzymes [1]; in DMSO, 10 μM, control 61): 0 μM MDA/ml

Compound: CC(C)NCC(O)COc1cccc2ccccc12 (stereo not drawn) [Propranolol Hydrochloride]
- Anti-Abzyme activity (anti-Chlamydia abzymes [1]; Hydrochloride): 21.3 μM MDA/ml and 18.3 μM MDA/ml

Compound: CC(=O)Oc1ccccc1C(=O)O [Aspirin, acetylsalicylic acid]
- abzyme activity, + aspirin (anti-Chlamydia abzymes [2]; stable angina class I): 5 and 45 and 0 (3×) and 10
- abzyme activity, + aspirin (anti-Chlamydia abzymes [2]; stable angina class II): 5 (4×) and 10 (2×) and 0 (4×) and 25 and 22.5 and 3.3 and 16.7 and 30
- abzyme activity, + aspirin (anti-Chlamydia abzymes [2]; stable angina class III): 0 (3×) and 45 and 5 and 35 and 15 and 30 and 105 and 20
- abzyme activity, + aspirin (anti-Chlamydia abzymes [2]; unstable angina (IV)): 130 and 70 and 0 and 37 and 90 and 100 and 180
- individuals positive for abzymes, + aspirin (anti-Chlamydia abzymes [2]; stable angina class I, 1/6): 17%
- abzyme activity, + aspirin, group mean (anti-Chlamydia abzymes [2]; stable angina class I, n = 6, without aspirin 30.0): 10.0
- individuals positive for abzymes, + aspirin (anti-Chlamydia abzymes [2]; stable angina class II, 4/15): 27%
- abzyme activity, + aspirin, group mean (anti-Chlamydia abzymes [2]; stable angina class II, n = 15, without aspirin 32.2): 9.2
- individuals positive for abzymes, + aspirin (anti-Chlamydia abzymes [2]; stable angina class III, 6/10): 60%
- abzyme activity, + aspirin, group mean (anti-Chlamydia abzymes [2]; stable angina class III, n = 10, without aspirin 56.0): 25.5
- individuals positive for abzymes, + aspirin (anti-Chlamydia abzymes [2]; unstable angina (IV), 6/7): 86%
- abzyme activity, + aspirin, group mean (anti-Chlamydia abzymes [2]; unstable angina (IV), n = 7, without aspirin 119): 86.7
- In-vitro Inhibition (anti-Chlamydia abzymes [1]): +
- Result (inhibition of anti-Chlamydia abzymes) (anti-Chlamydia abzymes [1]; [9]): Positive
- Lipid oxidising activity of anti-Chlamydia abzymes (anti-Chlamydia abzymes [1]; [10]): 6.2 μM MDA/ml
- Level of activity of anti-Chlamydia abzymes, 7 days after starting to take 250 mg of aspirin daily (anti-Chlamydia abzymes [3]; individual patients with CHD, before aspirin 45, 100, 45): undetectably low level and 20 μM MDA/ml and 0 μM MDA/ml
- inhibition of the abzyme activity (anti-Chlamydia abzymes [3]; one CHD patient, 250 mg aspirin daily, after a week): 5 fold
- Level of activity of anti-Chlamydia abzymes, 7 days after re-starting to take 250 mg aspirin daily (anti-Chlamydia abzymes [3]; [11]): 20 μM MDA/ml
- Level of activity of anti-Chlamydia abzymes, after stopping taking aspirin for 7 days (anti-Chlamydia abzymes [3]; [11]): 65 μM MDA/ml
- Level of activity of anti-Chlamydia abzymes, aspirin intake 250 mg daily (anti-Chlamydia abzymes [3]; patient F, Silent Myocardial Ischaemia, regular intake): 10 μM MDA/ml
- Anti-Chlamydia abzyme activity, 60 days after the start of treatment (anti-Chlamydia abzymes [4]; Therapy Group D individual IHD patients, aspirin 250 mg daily, before 103, 253): 63 μM MDA/ml and 103 μM MDA/ml
- Anti-Chlamydia abzyme activity, 60 days after the start of treatment (anti-Chlamydia abzymes [4]; Therapy Group D mean, before treatment 178): 83.2 μM MDA/ml

Compound: CCCCCCCCCCCCOS(=O)(=O)[O-].[Na+] [SDS]
- lipid oxidising reaction in the test system (Chlamydia): no lipid oxidising reaction

Compound: CC(C)(S)[C@@H](N)C(=O)O [Penicillamine]
- In-vitro Inhibition (anti-Chlamydia abzymes [1]): +
- Result (inhibition of anti-Chlamydia abzymes) (anti-Chlamydia abzymes [1]; [9]): Positive
- Lipid oxidising activity of anti-Chlamydia abzymes (anti-Chlamydia abzymes [1]; [10]): 0 μM MDA/ml

Compound: O=C(O)c1ccccc1 [benzole acid]
- Level of MDA production by 0.82 μg of lesion IgG (lesion IgG; LDL 480 μg of protein, +0.1 M antioxidant, control 0.49 ± 0.023): 0 µM

Compound: CC[C@H]1OC(=O)[C@H](C)[C@@H](O[C@H]2C[C@@](C)(OC)[C@@H](O)[C@H](C)O2)[C@H](C)[C@@H](O[C@@H]2O[C@H](C)C[C@H](N(C)C)[C@H]2O)[C@](C)(O)C[C@@H](C)CN(C)[C@H](C)[C@@H](O)[C@]1(C)O [Azithromycin]
- Anti-Chlamydia IgG, 60 days after treatment (anti-Chlamydia IgG [5]; summary, group value, before treatment 43.6, 48.5, 52.0 (A, C, B), immuno-fluorescent assay): 0 (titers)^−1
- presence of anti-Chlamydia IgG after the intensive regimen (anti-Chlamydia IgG [5]; therapy trial): totally eliminated
- treated patients with a reduction of titers of anti-Chlamydia antibodies (anti-Chlamydia IgG [6]): 43%
- Anti-Chlamydia abzyme activity, 15 days after the start of the treatment (anti-Chlamydia abzymes [7]; [12]): 19.6 μM MDA/ml
- Anti-Chlamydia abzyme activity, 30 days after the start of the treatment (anti-Chlamydia abzymes [7]; [12]): 17.7 μM MDA/ml
- Anti-Chlamydia abzyme activity, 15 days after the start of the treatment (anti-Chlamydia abzymes [7]; [13]): 60 μM MDA/ml and 0 μM MDA/ml (3×) and 8.3 μM MDA/ml and 6.7 μM MDA/ml (3×) and 33 μM MDA/ml and 75 μM MDA/ml
- Anti-Chlamydia abzyme activity, 30 days after the start of the treatment (anti-Chlamydia abzymes [7]; [13]): 37 μM MDA/ml and 0 μM MDA/ml (3×) and 28 μM MDA/ml and 3.3 μM MDA/ml (2×) and 10 μM MDA/ml and 78 μM MDA/ml
- Score by modified Rose-Blackburn Questionnaire, 60 days after start of the treatment ([8]; group mean): 14.4 ± 1.14
- Rose Blackthorn Score Day 60 [8, 14]: 18 and 19 and 10 and 13
- Score by modified Rose-Blackburn Questionnaire, 60 days after start of the treatment ([8]; individual patients): 13 and 16 and 18 and 15 (2×) and 8 and 11 and 17 (2×) and 19 and 10
- Clinical Status modified Rose G., Blackburn H Questionnaire, 60 days after treatment ([8]; summary, group mean, PCG 21.5 ± 1.19): 14.4 ± 1.14
- Lipid oxidising activity of anti-Chlamydia abzymes (anti-Chlamydia abzymes [1]; in DMSO, 1 μM, control 61): 7 μM MDA/ml
- Lipid oxidising activity of anti-Chlamydia abzymes (anti-Chlamydia abzymes [1]; in DMSO, 5 μM, control 61): 0 μM MDA/ml
- Lipid oxidising activity of anti-Chlamydia abzymes (anti-Chlamydia abzymes [1]; suspension in water, 1 μM, control 61): 19 μM MDA/ml
- Lipid oxidising activity of anti-Chlamydia abzymes (anti-Chlamydia abzymes [1]; suspension in water, 2 μM, control 61): 0 μM MDA/ml
- Lipid oxidising activity of anti-Chlamydia abzymes (anti-Chlamydia abzymes [1]; suspension in water, 10 μM, control 61): 0 μM MDA/ml
- Lipid oxidising activity of anti-Chlamydia abzymes (anti-Chlamydia abzymes [1]; suspension in water, 20 μM, control 61): 0 μM MDA/ml
- Anti-Chlamydia abzyme activity, 15 days after the start of treatment (anti-Chlamydia abzymes [4]; [15]): 6.7 μM MDA/ml (3×) and 0 μM MDA/ml (3×) and 60* μM MDA/ml and 8.3 μM MDA/ml and 33 μM MDA/ml and 75* μM MDA/ml and 52* μM MDA/ml
- Anti-Chlamydia abzyme activity, 30 days after the start of treatment (anti-Chlamydia abzymes [4]; [15]): 78** μM MDA/ml and 0 μM MDA/ml (3×) and 37* μM MDA/ml and 28** μM MDA/ml and 3.3 μM MDA/ml (2×) and 10 μM MDA/ml (2×) and 78* μM MDA/ml
- Anti-Chlamydia abzyme activity, 45 days after the start of treatment (anti-Chlamydia abzymes [4]; [15]): 17 μM MDA/ml and 0 μM MDA/ml (5×) and 20* μM MDA/ml and 43* μM MDA/ml and 3.3 μM MDA/ml (2×) and 5.0 μM MDA/ml
- Anti-Chlamydia abzyme activity, 60 days after the start of treatment (anti-Chlamydia abzymes [4]; [15]): 3.3 μM MDA/ml and 6.7 μM MDA/ml (2×) and 0 μM MDA/ml (7×) and 0.5 μM MDA/ml
- Anti-Chlamydia abzyme activity, 15 days after the start of treatment (anti-Chlamydia abzymes [4]; [16]): 22.5 μM MDA/ml
- Anti-Chlamydia abzyme activity, 30 days after the start of treatment (anti-Chlamydia abzymes [4]; [16]): 22.5 μM MDA/ml
- Anti-Chlamydia abzyme activity, 45 days after the start of treatment (anti-Chlamydia abzymes [4]; [16]): 7.4 μM MDA/ml
- Anti-Chlamydia abzyme activity, 60 days after the start of treatment (anti-Chlamydia abzymes [4]; [16]): 1.6 μM MDA/ml
- patients with no changes in the abzyme activity after 15 days (anti-Chlamydia abzymes [4]; Therapy Group A, 3 out of 11): 27%
- Abzyme activity Day 60 (anti-Chlamydia abzymes [4]; [14]): 6.7 (2×) and 3.3 and 0
- Anti-Chlamydia abzymes activity, 60 days after treatment (anti-Chlamydia abzymes [4]; summary, group mean, PCG 55.3 ± 6.18, Norm 6.36 ± 1.14): 1.6 ± 0.89 μM/MDA/ml
- adverse reactions (human, in vivo): No adverse reactions
- tablets of nitroglycerine daily after 15 days of treatment (patient 5, before treatment 10 tablets daily): 5 tablets of nitroglycerine
